Experimental findings from PubChem BioAssay (NCI) are described below.

One assay concerns MDA-N. Put plainly: inhibition of tumour cell growth, NCI panel, 48 h.
Another assay deals with RXF-631 renal. Put plainly: inhibition of tumour cell growth, NCI panel, 48 h.

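Each compound was tested at five concentrations against cells in 96-well plates for 48 hours. Definition used: TGI = concentration required for complete inhibition of growth.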 Where only a bound is given, the exact number is not on record here.

Molecule `COC1OC(CS(=O)(=O)O)C(O)C(O)C1O` (stereo not given) registered a TGI in the assay on MDA-N above 100 µM. `O=C(c1ccccc1)c1ccc2n[se]nc2c1` registered a TGI in the assay with RXF-631 renal above 100 µM. For `CC1(C)[C@@H]2CC[C@]1(C)[C@H](OC(=O)CSC#N)C2`, the TGI with MDA-N is above 100 µM. Same read-out and setting: to `CC(=O)C(C(c1ccccc1)N1CCOCC1)N1CCOCC1` (stereo not given) belongs above 100 µM; to `CCOP(=Nc1ccc(N(C)C)cc1)(OCC)OCC`, above 100 µM.
